Laboratory results as given in PMC11989239, “Structure–Property Relationships in Novel Series of Photoswitchable Local Anesthetic Ethercaine Derivatives: Emphasis on Biological and Photophysical Properties” (International Journal of Molecular Sciences, 2025).
Where a name gives a salt, the structure may show the parent alone.

How the values were obtained:
[1] = Z-E isomerization half-life by UV/Vis spectrophotometry after 365 nm irradiation; format: physicochemical; conditions: for τ1/2 (DMSO), Z-E isomerization half-life: RT, after 365 nm 5 min; for τ1/2 (Aqueous Kolliphor ELP), Z-E isomerization half-life: aqueous 4% Kolliphor ELP solution
Procedure: As one of the main physicochemical properties of photopharmacological agents, the Z-E half-life was investigated, which determines the stability of the Z-isomer. The Z-E half-lifes were measured using UV/Vis spectrophotometry, converting the compound to the Z-isomer by irradiating with UV light and observing the change in absorption intensity due to reverse Z-E relaxation.
Z-E isomerization half-life was determined using UV/Vis spectroscopy. Solutions were prepared and kept in the dark at RT before the experiment. First, the spectrum in the dark was registered ( PSSdark) , which corresponds to the photostationary state (PSS) with E-isomer predominance. Then, the cuvette with the solution was irradiated with UV light (λ = 365 nm) for 5 min to give the PSS with Z-isomer predominance. The corresponding spectrum was registered ( PSS365nm) . During the subsequent isomerization, the kinetics of changes in the absorption value were recorded at the wavelength of the absorption maximum corresponding to the E-isomer ( λmax(E)) . Then, lnAt/A0 values were calculated using the Equation (1):(1) lnAt/A0=lnAbsPSS(dark)−Abstime/AbsPSS(dark)−AbsPSS(365nm), where AbsPSS(dark) , AbsPSS(365nm), and Abstime are absorbance values at λmax(E) in the dark at the beginning of the experiment, after UV light (λ = 365 nm) irradiation, and at different time points from 0 to 60 min, respectively. Then, a graph was plotted depending on lnAt/A0 values from time, the trend line was calculated, and a first-order rate constant (k) for the thermal back Z-E isomerization reaction was obtained as the slope of the trend line.
For a first-order reaction, half-life t1/2 can be calculated using the Equation (2):(2) t1/2=ln2/k

rabbit eye cornea = test: Surface anesthesia on the rabbit cornea, Regnier method (Regnier index); format: in vivo; conditions: for Local Anesthetic Activity (Regnier Index, Min—13, Max—1300) In the Dark / Local Anesthetic Activity (Regnier Index, Min—13, Max—1300) Under Irradiation (λ = 365 nm): 1% solution, 0.2 mL instilled, mean ± SD; for Local Anesthetic Activity (Regnier Index, Min—13, Max—1300) In the Dark: in the dark (E-form predominance); for Local Anesthetic Activity (Regnier Index, Min—13, Max—1300) Under Irradiation (λ = 365 nm): solution irradiated with UV 365 nm (Z-form predominance)
Procedure: Thus, the main biological property investigated in this work was the local anesthetic activity of the new derivatives in the dark (with a predominance of the E-form) and under irradiation (with a predominance of the Z-form). The evaluation of local anesthetic activity was conducted on the rabbit cornea using the Regnier method. […] RI values in darkness (451 ± 40) and under UV light irradiation (469 ± 37) for a 2% solution of lidocaine, used as a reference drug, were obtained previously and are independent of light exposure. A 4% aqueous solution of Kolliphor® ELP, used for solubilizing ethercaine and its derivatives and lacking intrinsic local anesthetic activity, was employed as a negative control. In vitro cytotoxicity studies were conducted to initially assess the safety of the compounds.
Non-anesthetized, mature male rabbits of a Soviet chinchilla breed weighing 2–3 kg, obtained from the KrolInfo farm (Orekhovo-Zuyevo, Russia), were used in this study. Animals were kept under standard conditions (humidity 50–60%, temperature 19–22 °C). A 12-h lighting cycle was maintained. Each animal was kept in a separate cage. Animals had ad libitum access to standard extruded feed “CHARA” (CJSC “Assortiment-Agro”, Turakovo Village, Moscow region, Russia) and clean drinking water. Water treatment was performed using a “7 TECHNOCOM” block modular system (LLC “7 TECH”, Moscow, Russia). For in vivo, surface anesthesia measurements, an in-house-made anesthesiometer with a fixed length of a nylon filament (l = 1.0 cm, d = 0.125 mm) was used. Statistical analysis was performed, and figures were plotted using the Python programming language’s standard functions and a Matplotlib package (Version 3.8) for Python. All biological data conformed to a normal distribution (Shapiro–Wilk’s W test, p > 0.05). All data are expressed as the mean ± standard deviation.
For determination of the rabbit eye cornea’s sensitivity using the surface anesthesia method, 12 rabbits with a basic sensitivity threshold (sensitivity threshold of the eye cornea to tactile impact of the anesthesiometer) of 1–2 touches were selected. They were used in experiments repeatedly with an interval of at least 5 days between the experiments. Each eye was considered as a separate experimental point. Three animals were used in each of the experimental groups (n = 6). Two animals (n = 4) were used in each of the negative control groups and in each of experimental groups with UV irradiation due to the expected lack of the effect and to minimize the number of animals in the experiment. Animals were randomly divided into groups. Before an experiment, the animals were immobilized, leaving the head free. Before each experiment, the animals’ eyelashes were cut out, and the basic threshold of sensitivity of the eye cornea to tactile contact was determined using an anesthesiometer.
The irradiation modes were described earlier. Experiments with animals were carried out in a darkened room with a 50W LED light source (λ = 625 nm), which lies outside the absorption bands of the UV/Vis spectrum of the test compound. Before the experiments, solutions of test compounds were irradiated for 5 min with UV light (λ = 365 nm, LED flashlight, 0.5 W).
The adaptation of a model of surface anesthesia on the rabbit’s cornea using the Regnier method for the study of light-controlled local anesthetics was described earlier. The test solution (0.2 mL) of the required concentration (2% for the lidocaine or 1% for the ethercaine and its derivatives) was instilled into each conjunctival sac. After that, the sensitivity threshold of the eye cornea to tactile impact was determined. The first determination was performed at the 8th minute of the experiment and then at the 10th, 12th, 15th, 20th, 25th, 30th, 35th, 40th, 45th, 50th, 55th, and 60th min (13 values overall). […]

[2] = In vitro cytotoxicity, MTT test, 24 h incubation; format: cell-based, human; conditions: human, dermal fibroblast cells (DF2), DF2 fibroblasts
Procedure: (§1) The culture of dermal fibroblast cells (DF2) was obtained from the collection of the Institute of Cytology of the Russian Academy of Sciences (Saint Petersburg, Russia). The cells were cultured in plastic vials with a cell growth surface of 25 cm^2 (Costar, Richmond, VA, USA) on DMEM/F12 medium with the addition of L-glutamine and 10% fetal bovine serum (FBS) (PanEco, Moscow, Russia). The cells were cultured at 37 °C in a humid atmosphere with a content of 5% CO2 (Binder CO2 incubator, Germany). Cell lines from 3 to 7 passages were used in the work. To conduct experiments to evaluate the cytotoxicity of compounds, cells were sieved into 96-well culture plates at a concentration of 10^5 cells per ml, incubated at 37 °C (humidified atmosphere, 5% carbon dioxide) for 24–28 h. Further, 50 µL of the studied substances was added. The cells were incubated with the compounds for 24 h at 37 °C. Next, the cytotoxic effect of the substances was evaluated by a colorimetric method using an MTT test and visually, using an inverted microscope. The criterion for evaluating the specific activity of the compound was the value of IC50, the concentration at which 50% death of culture cells was noted.

[3] = test system: human dermal fibroblasts (DF2); test: In vitro cytotoxicity, MTT test, 24 h incubation; format: cell-based
Procedure: as §1

Row | SMILES | τ1/2 (DMSO), Z-E isomerization half-life [1] [h] | τ1/2 (Aqueous Kolliphor ELP), Z-E isomerization half-life [1] [h] | Decrease in Regnier index under UV light irradiation (365 nm) versus darkness (rabbit eye cornea; dark vs 365 nm) [fold] | IC50 at 24 h [2] [µM] | τ1/2 (Aqueous Kolliphor ELP column), Z-E isomerization half-life ([1]; value obtained for the solution in water) [h] | Local Anesthetic Activity (Regnier Index, Min—13, Max—1300) In the Dark (rabbit eye cornea) | Local Anesthetic Activity (Regnier Index, Min—13, Max—1300) Under Irradiation (λ = 365 nm) (rabbit eye cornea) | IC50 [3] [µM]
1 | c1ccc(/N=N/c2ccc(OCCN3CCOCC3)cc2)cc1 [Compound 1, Ethercaine hydrochloride] | 2.1 | 0.833 | 19 | 210 |  |  |  | 
2 | c1ccc(/N=N/c2ccccc2OCCN2CCOCC2)cc1 [Compound 9a, 2-(2-(N-morpholino)-ethoxy)-azobenzene hydrochloride] | 17.2 | 125 |  | > 1000 |  |  |  | 
3 | c1ccc(/N=N/c2cccc(OCCN3CCOCC3)c2)cc1 [Compound 9b, 3-(2-(N-morpholino)-ethoxy)-azobenzene hydrochloride] | 26.8 | 437 |  | 240 |  |  |  | 
4 | CN1CCN(CCOc2ccc(/N=N/c3ccccc3)cc2)CC1 [Compound 14, 4-(2-(4-Methyl-1-Piperazino)-Ethoxy)-Azobenzene Dihydrochloride] | 18.6 |  |  | 60 | 3.5 |  |  | 
5 | CCN(CC)CCOc1ccc(N=Nc2ccccc2)cc1.Cl [Compound 16, 4-(2-(N,N-Diethylamino)Ethoxy)Azobenzene Hydrochloride] | 15.6 | 6.0 |  | 90 |  |  |  | 
6 | Cl.Fc1cc(OCCN2CCOCC2)ccc1N=Nc1ccccc1 [Compound 20a, 2-fluoro-4-(2-(N-morpholino)-ethoxy)-azobenzene hydrochloride] | 7.8 | 2.5 |  |  |  | 509 ± 34 (n = 6) | 64 ± 15 (n = 4) | 190
7 | Cl.Fc1cc(OCCN2CCOCC2)cc(F)c1N=Nc1ccccc1 [Compound 20b, 2,6-difluoro-4-(2-(N-morpholino)-ethoxy)-azobenzene hydrochloride] | 456 | 1.9 |  |  |  | 538 ± 37 (n = 6) | 58 ± 8 (n = 4) | 180
8 | Cl.Fc1ccccc1N=Nc1ccc(OCCN2CCOCC2)cc1 [Compound 20c, 2′-fluoro-4-(2-(N-morpholino)-ethoxy)-azobenzene hydrochloride] | 3.6 | 0.4 |  |  |  | 590 ± 24 (n = 6) | 70 ± 7 (n = 4) | 190
9 | Cl.Fc1ccccc1N=Nc1ccc(OCCN2CCOCC2)cc1F [Compound 20d, 2,2′-difluoro-4-(2-(N-morpholino)-ethoxy)-azobenzene hydrochloride] | 8.1 | 2.3 |  |  |  | 419 ± 57 (n = 6) | 84 ± 8 (n = 4) | 190
10 | Cl.Fc1ccccc1N=Nc1c(F)cc(OCCN2CCOCC2)cc1F [Compound 20e, 2,2′,6-trifluoro-4-(2-(N-morpholino)-ethoxy)-azobenzene hydrochloride] | 703 | 60 |  |  |  | 395 ± 72 (n = 6) | 59 ± 18 (n = 4) | 190
11 | Cl.Fc1cccc(F)c1N=Nc1ccc(OCCN2CCOCC2)cc1 [Compound 20f, 2′,6′-difluoro-4-(2-(N-morpholino)-ethoxy)-azobenzene hydrochloride] | 24 | 1.0 |  |  |  | 570 ± 87 (n = 6) | 76 ± 19 (n = 4) | 210
12 | Cl.Fc1cc(OCCN2CCOCC2)ccc1N=Nc1c(F)cccc1F [Compound 20g, 2,2′,6′-trifluoro-4-(2-(N-morpholino)-ethoxy)-azobenzene hydrochloride] | 137 | 5.0 |  |  |  | 437 ± 37 (n = 6) | 45 ± 9 (n = 4) | 180
13 | Cl.Fc1cccc(F)c1N=Nc1c(F)cc(OCCN2CCOCC2)cc1F [Compound 20h, 2,2′,6,6′-tetrafluoro-4-(2-(N-morpholino)-ethoxy)-azobenzene hydrochloride] | 1190 | 281 |  |  |  | 353 ± 10 (n = 6) | 35 ± 7 (n = 4) | 440
14 | Cc1cnc(/N=N/c2ccc(OCCN3CCOCC3)cc2)s1 [Compound 25b, 2-(4-(2-(N-morpholino)-ethoxy)-phenylazo)-5-methylthiazole hydrochloride] | 0.083 | 0.067 |  | 440 |  |  |  | 
